Laboratory results: ChEMBL document CHEMBL5038674, “Structure-Activity Relationship of Anti-Mycobacterium abscessus Piperidine-4-carboxamides, a New Class of NBTI DNA Gyrase Inhibitors” (ACS Med Chem Lett, 2022)
Converted amounts (≈) assume the structure as drawn. The source made the active and inactive calls. The calls are words filed in the database; no cut-off is given here.

Assays:
[1] = Inhibition of Mycobacterium abscessus DNA gyrase using pBR322 DNA as substrate […] by fluorescence based microplate reader assay; parameters: species or system Mycobacteroides abscessus
[2] = biological target: Voltage-gated inwardly rectifying potassium channel KCNH2 (Homo sapiens, UniProt Q12809); assay: Inhibition of human ERG; assay type: toxicity
Sequence of Voltage-gated inwardly rectifying potassium channel KCNH2 (Q12809 whole entry): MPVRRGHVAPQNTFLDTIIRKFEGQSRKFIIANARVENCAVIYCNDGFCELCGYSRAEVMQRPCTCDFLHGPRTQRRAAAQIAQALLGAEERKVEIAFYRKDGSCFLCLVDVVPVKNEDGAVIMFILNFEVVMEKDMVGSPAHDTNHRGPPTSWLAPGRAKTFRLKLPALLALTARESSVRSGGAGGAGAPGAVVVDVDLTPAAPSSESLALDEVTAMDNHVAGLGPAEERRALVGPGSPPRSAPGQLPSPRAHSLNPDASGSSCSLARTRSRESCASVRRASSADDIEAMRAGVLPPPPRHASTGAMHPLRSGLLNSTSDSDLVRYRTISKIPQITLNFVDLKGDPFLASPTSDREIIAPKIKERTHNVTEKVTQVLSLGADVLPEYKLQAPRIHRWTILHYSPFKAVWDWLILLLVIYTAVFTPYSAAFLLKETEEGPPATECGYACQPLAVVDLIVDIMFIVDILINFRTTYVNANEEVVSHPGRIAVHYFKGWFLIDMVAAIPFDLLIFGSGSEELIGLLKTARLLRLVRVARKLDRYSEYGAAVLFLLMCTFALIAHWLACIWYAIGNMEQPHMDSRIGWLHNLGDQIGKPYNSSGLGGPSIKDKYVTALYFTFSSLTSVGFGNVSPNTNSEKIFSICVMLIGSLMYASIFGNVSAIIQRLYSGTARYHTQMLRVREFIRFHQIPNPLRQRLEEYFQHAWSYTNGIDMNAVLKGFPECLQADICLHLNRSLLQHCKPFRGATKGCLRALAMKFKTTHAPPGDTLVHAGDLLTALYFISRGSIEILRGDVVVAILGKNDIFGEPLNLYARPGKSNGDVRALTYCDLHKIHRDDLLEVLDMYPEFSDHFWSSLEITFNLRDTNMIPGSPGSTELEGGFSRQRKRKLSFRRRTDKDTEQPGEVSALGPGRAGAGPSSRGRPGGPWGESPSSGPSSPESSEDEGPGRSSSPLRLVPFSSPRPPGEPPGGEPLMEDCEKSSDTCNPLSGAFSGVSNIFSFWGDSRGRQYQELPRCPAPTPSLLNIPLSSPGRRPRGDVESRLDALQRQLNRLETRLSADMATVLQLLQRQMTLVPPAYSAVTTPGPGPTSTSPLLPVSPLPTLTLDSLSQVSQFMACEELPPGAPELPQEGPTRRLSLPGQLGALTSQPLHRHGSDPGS

[3] = Antimycobacterial activity against Mycobacterium abscessus subsp. abscessus bamboo strain assessed as inhibition of mycobacterial growth incubated for 3 days by broth microdilution method; assay type: functional; conditions: Mycobacteroides abscessus, 72 h, time 3 day
[4] = Lipophilicity, logP of compound; assay type: physicochemical; conditions: octanol/water
FaDu = assay: Cytotoxicity against human FaDu cells assessed as reduction in cell viability upto 30 uM after 24 hrs by SRB assay; assay type: functional, cell-based; conditions: dose microM <=30, time 24.0 hrs
HEK293 = assay: Cytotoxicity against human HEK293 cells assessed as reduction in cell viability upto 30 uM after 24 hrs by SRB assay; assay type: toxicity, cell-based; conditions: hek293, 24 h
HT-29 = assay: Cytotoxicity against human HT-29 cells assessed as reduction in cell viability upto 30 uM after 24 hrs by SRB assay; assay type: functional, cell-based; conditions: dose microM <=30, time 24.0 hrs
A-375 = assay: Cytotoxicity against human A375 cells assessed as reduction in cell viability upto 30 uM after 24 hrs by SRB assay; assay type: functional, cell-based; conditions: dose microM <=30, time 24.0 hrs
NIH3T3 = assay: Cytotoxicity against mouse NIH3T3 cells assessed as reduction in cell viability upto 30 uM after 24 hrs by SRB assay; assay type: toxicity, cell-based; conditions: nih3t3, 24 h
MCF7 = assay: Cytotoxicity against human MCF7 cells assessed as reduction in cell viability upto 30 uM after 24 hrs by SRB assay; assay type: functional, cell-based; conditions: dose microM <=30, time 24.0 hrs
[5] = tested on: Mycobacterium abscessus subsp. abscessus; assay: Upregulation of RecA promoter activity in P4C resistant Mycobacterium abscessus subsp. abscessus ATCC 19977 mutant D91N assessed as bacterial DNA damage by luminescence assay; assay type: functional; conditions: time 3.0 day
[6] = tested on: Mycobacterium abscessus subsp. abscessus; assay: Upregulation of RecA promoter activity in Mycobacterium abscessus subsp. abscessus ATCC 19977 assessed as bacterial DNA damage by luminescence assay; assay type: functional
Staphylococcus aureus = assay: Antibacterial activity against Staphylococcus aureus assessed as inhibition of bacterial growth incubated for 3 days by broth microdilution method; assay type: functional; conditions: 72 h, time 3 day
Mycobacterium avium = assay: Antimycobacterial activity against Mycobacterium avium 11 assessed as inhibition of mycobacterial growth incubated for 3 days by broth microdilution method; assay type: functional; conditions: Mycobacterium avium, 11, 72 h; time 3 day
[7] = Antimycobacterial activity against Mycobacterium abscessus subsp. massiliense CCUG 48898T assessed as inhibition of mycobacterial growth incubated for 3 days by broth microdilution method; assay type: functional; conditions: Mycobacteroides abscessus, 72 h, time 3 day
[8] = tested on: Mycobacteroides abscessus; assay: Antimycobacterial activity against Mycobacterium abscessus K21 assessed as inhibition of mycobacterial growth incubated for 3 days by broth microdilution method; assay type: functional; conditions: K21, 72 h, time 3 day
[9] = Antimycobacterial activity against Mycobacterium abscessus subsp. bolletii CCUG 50184T assessed as inhibition of mycobacterial growth incubated for 3 days by broth microdilution method; assay type: functional; conditions: Mycobacteroides abscessus, 72 h, time 3 day
[10] = tested on: Mycobacteroides abscessus; assay: Antimycobacterial activity against Mycobacterium abscessus ATCC 19977 assessed as inhibition of mycobacterial growth incubated for 3 days by broth microdilution method; assay type: functional; conditions: ATCC 19977, 72 h, time 3 day
[11] = Stability of compound in CD1 mouse plasma assessed as parent compound remaining by QE-HRMS analysis; assay type: ADME, cell-free
[12] = Stability of compound in CD1 mouse at 25 mg/kg, po by HPLC-MS/MS analysis; assay type: ADME, organism-based; conditions: in vivo
hERG (KCNH2) = hERG (KCNH2) (Homo sapiens, UniProt Q12809); assay: Inhibition of human ERG at 10 uM; assay type: toxicity
Sequence of hERG (KCNH2) (Q12809 whole entry): as above

Structure (SMILES)	IC50 [1] [µM]	logP [4]	MIC90 [3] [µM]	Activity (FaDu)	Activity (HEK293)	Activity (HT-29)	Activity (A-375)	Activity (NIH3T3)	Activity (MCF7)	other results
O=C1COc2ccc(CNC3CCN(CCn4c(=O)ccc5ccc(Oc6ccccn6)nc54)CC3)nc2N1	0.11									IC50 [2]: 155 µM; MIC [3]: 0.06 µM (≈ 0.0317 µg/mL)
COc1ccc(CCN2CCC(C(=O)Nc3ccnc4ccc(OC)nc34)CC2)cc1		1.9	100 (≈ 42.1 µg/mL)							
COc1ccc2nccc(NC(=O)C3CCN(CCc4cccc(C(F)(F)F)c4)CC3)c2n1		2.9	12.5 (≈ 5.73 µg/mL)	inactive	Non-Toxic	inactive	inactive	Non-Toxic	inactive	
COc1ccc2nccc(NC(=O)CC3CCN(Cc4ccc(C(F)(F)F)cc4)CC3)c2n1	40	2.8	100 (≈ 45.8 µg/mL)							
COc1ccc2nccc(NC(=O)C3CCN(CCc4ccc(OC(F)(F)F)cc4)CC3)c2n1		4	100 (≈ 47.4 µg/mL)							
O=c1ccc2ncc(=O)n3c2n1C[C@H]3CN1CCC(NCc2cc3c(cn2)OCCC3)CC1 [GEPOTIDACIN]	2	0.1	10 (≈ 4.49 µg/mL)							Activity [5]: inactive; Activity [6]: Active
COc1ccc2nccc(NC(=O)[C@H]3CC[C@H](NCc4ccc(C(F)(F)F)cc4)CC3)c2n1	1.5	3.3	0.4 (≈ 0.183 µg/mL)	inactive	Non-Toxic	inactive	inactive	Non-Toxic	inactive	MIC90 (Staphylococcus aureus): 0.7 µM (≈ 0.321 µg/mL); MIC90 (Mycobacterium avium): 2 µM (≈ 0.917 µg/mL); MIC90 [7]: 1.2 µM (≈ 0.55 µg/mL); MIC90 [8]: 2 µM (≈ 0.917 µg/mL); MIC90 [9]: 1 µM (≈ 0.458 µg/mL); MIC90 [10]: 0.4 µM (≈ 0.183 µg/mL)
COc1ccc2nccc(NC(=O)C3CCN(CCc4ccccc4F)CC3)c2n1		2.1	50 (≈ 20.4 µg/mL)							
COc1ccc2nccc(NC(=O)C3CCN(CCc4ccc(C(F)(F)F)cc4)CC3)c2n1	1.5	2.9	1.5 (≈ 0.688 µg/mL)	inactive	Non-Toxic	inactive	inactive	Non-Toxic	inactive	MIC90 (Staphylococcus aureus): 0.2 µM (≈ 0.0917 µg/mL); MIC90 (Mycobacterium avium): 2.5 µM (≈ 1.15 µg/mL); Stability [11]: Stable; MIC90 [7]: 2 µM (≈ 0.917 µg/mL); MIC90 [8]: 3.5 µM (≈ 1.6 µg/mL); MIC90 [9]: 2 µM (≈ 0.917 µg/mL); Stability [12]: Stable; MIC90 [10]: 1.5 µM (≈ 0.688 µg/mL); inhibition at 10 µM (hERG (KCNH2)): 93%
COc1ccc2nccc(NS(=O)(=O)C3CCN(CCc4ccc(C(F)(F)F)cc4)CC3)c2n1		2.4	100 (≈ 49.5 µg/mL)							
COc1ccc2nccc(NC(=O)C3CCN(CCc4ccc(C(F)(F)F)c(F)c4)CC3)c2n1		3.1	0.6 (≈ 0.286 µg/mL)	inactive	Non-Toxic	inactive	inactive	Non-Toxic	inactive	MIC90 (Staphylococcus aureus): 0.5 µM (≈ 0.238 µg/mL); MIC90 (Mycobacterium avium): 0.8 µM (≈ 0.381 µg/mL); MIC90 [7]: 1.5 µM (≈ 0.715 µg/mL); MIC90 [8]: 2 µM (≈ 0.953 µg/mL); MIC90 [9]: 1 µM (≈ 0.476 µg/mL); MIC90 [10]: 0.6 µM (≈ 0.286 µg/mL)
COc1ccc2nccc(NC(=O)C3CCN(CCc4ccc(F)cc4)CC3)c2n1		2.1	50 (≈ 20.4 µg/mL)							
COc1ccc2nccc(NC(=O)C3CCN(CCc4c(F)cccc4F)CC3)c2n1		2.3	100 (≈ 42.6 µg/mL)							
